Drawing on publication PMC5582255, “Partial Purification and Characterization of the Recombinant Benzaldehyde Dehydrogenase from Rhodococcus ruber UKMP-5M” (Iranian Journal of Biotechnology, 2017), this text covers Km for one compound.

Each structure is given as a SMILES string.

A word on the Km: it is the concentration of substrate that gives half-maximal velocity.

For this experiment, the system named is T1, BZDH (benzaldehyde dehydrogenase, xylC).
T1 construct: xylC ORF of 792 bp, 264 aa, ~27 kDa, homologous to the C-terminal half of other aldehyde dehydrogenases; DEAE ion exchange; forward primer […]; (encodes MSPSPVPPR), reverse primer […]; (C-terminus ...DVPGYPF)
Description: NADH formation at […] nm, Lineweaver-Burk. It counts as biochemical, Rhodococcus ruber. The settings on record: co-substrate NAD (standard assay 5 mM, 50 mM glycine-NaOH); 25 °C; benzaldehyde 0.005-4 mM; pH of kinetic run not stated.

As for `O=Cc1ccccc1` [benzaldehyde], the Km is 4.2 mM.
